Patent US8546086B2, “Use of neuregulin-β as an indicator and/or target” (Mind-NRG SA, priority 2000, dated 2013)

Columns and labels:
Type in all cases: cell-based, rat
Neuregulin-β = assay: 2-D-PAGE / MALDI-TOF-MS / ESI-MS of glutamate-induced changes in hippocampal proteins; conditions: for Quantity of Neu-β (32 kDa spot) in 2-D-PAGE: FIG. 4: B=glutamate, C=glutamate+MK-801 (10 μM MK-801)
From the text: (§1) Hippocampal cells were stimulated with stimulation buffer (in mM): NaCl (125), KCL (5), CaCl2 (2-6), MgCl2 (0.8) glucose (5-10), HEPES (20), L-glutamate (0.01-0.1), glycine (0.01), bicucullin (0.01), pH 7.2; (A=control, B=glutamate, C=glutamate+MK-801; MK-801 is a specific glutamate receptor antagonist). In this connection, the measured or control quantity indicative of performance was a fluorescence signal measured using Fura-2, which signal is proportional to the calcium concentration (all the substances can be found in chemical catalogues supplied by Torris or Sigma).
Furthermore, proteins which change under the chosen experimental conditions, or otherwise behave in a conspicuous manner, are characterized and identified using the techniques of proteome research, namely by means of two-dimensional gel electrophoresis, MALDI-TOF-MS and ESI-MS.
Neuregulin-β was identified by means of two-dimensional PAGE using isoelectric focusing and employing immobilized, nonlinear pH gradients of from 3 to 10 and linear gradients of from 4 to 7 as the first dimension and SDS-PAGE (12% acrylamide) as the second dimension.
The protein was excised from the gels, subjected to a trypsin cleavage within the gel and subsequently [lacuna] mass-spectroscopically by means of MALDI-TOF mass fingerprint and ESI peptide sequencing (Corthals et al., Identification of Proteins by Mass-Spectrometry, in: Proteome Research, Two-Dimensional Gel-Electrophoresis and Identification Methods, Thierry Rabilloud, Ed., Springer, Berlin (2000), 197-232).
The identity of the protein was confirmed by analyzing selected peptides by means of MS/MS analysis using ion traps, electrospray, mass spectroscopy of the peptide mixture, which was not fractionated and which had previously been analyzed by MALDI-TOF. The MS/MS analysis of m/z 798.4 was sufficient in order, inter alia, to identify the 88-94 peptide of neuregulin-β. The MS/MS analysis of m/z=842.7 confirmed the sequence of the peptide around position 81-87. […]

hippocampal cells [1] = assay: Intracellular 26Mg stable isotopic tracer by ICP-MS; conditions: hippocampal neurons, 100 μm glutamate for 30 seconds, +22° C.; control 25 nM/mg of protein
Description: (§2) Suitable cell culture systems, in the case of neuregulin-β hippocampal primary cultures obtained from prenatal or neonatal rats (described in, for example, “Rat hippocampal neurons in low-density culture”, K. Goslin, H. Asmussen, G. Banker; in “Culturing Nerve Cells, 2nd edition 1998, pp. 339 ff; K. Goslin and G. Banker, eds. MIT Press, Cambridge, Mass., USA), are cultured on the above-described slides, introduced into the flow cell and initially characterized microscopically (morphological micrographs, etc. in the phase contrast microscope). […]
(§3) Almost in parallel to this, the perfusate is subjected to a synchronized fractionation and analysis; in the case of hippocampal neurons, of neurotransmitters, by means of HPLC using fluorescence detection, in the case of other low molecular weight extracellular components, by means of EMI-MS, and in the case of stable isotopic tracers and metal ions, by means of ICP-MS.
(§4) In the above-described set up, the following parameters were determined simultaneously or in an explicitly correlating manner. […] Accompanying this, are the simultaneous changes in the release of neurotransmitter (GABA), the influx of Mg into the cells, as detected using the stable isotopic tracer ^26Mg. […]

hippocampal cells [2] = assay: Fura-2 fluorescence imaging of intracellular calcium after glutamate stimulation in flow cell; conditions: hippocampal neurons
From the text: as §1, with “Sigma). […]” for “Sigma).”
The fluorescence signals in a larger number of cells are detected, in a time-resolved manner, in dependence on the stimulation conditions (temperature, active compound).
as §4

hippocampal cells [3] = assay: Neurotransmitter (GABA) release in perfusate by fluorescence HPLC; conditions: hippocampal neurons, 100 μm glutamate for 30 seconds, +22° C.; control 87 pMol
Description: as §2, §3, §4

Compound | Quantity of Neu-β (32 kDa spot) in 2-D-PAGE (Neuregulin-β) | 26Mg (intracellular) concentration (prestimulated) (hippocampal cells [1]) | Calcium (intracellular) concentration (prestimulated) (hippocampal cells [2]; 100 μm glutamate for 30 seconds, +22° C., control 350 nM) | Calcium inflow (Fura-2) (hippocampal cells [2]; qualitative) | Neuregulin-β expression (prestimulated) (Neuregulin-β; hippocampal neurons, glutamate stimulated, control not expressed) | GABA measured quantity (prestimulated) (hippocampal cells [3])
C[C@]12N[C@H](Cc3ccccc31)c1ccccc12 [MK-801] | only weakly present, or cannot be found at all |  |  |  |  | 
N[C@@H](CCC(=O)O)C(=O)O [glutamate, L-glutamate] | substantially larger quantity | 45 nM/mg of nM/mg of protein | 850 nM | induces an inflow of calcium ions | Strongly | 74 pmol
